In ChEMBL document CHEMBL1128271, “Computer-aided molecular modeling, synthesis, and biological evaluation of 8-(benzyloxy)-2-phenylpyrazolo[4,3-c]quinoline as a novel benzodiazepine receptor agonist ligand” (J Med Chem, 1995):

The molecules below were run against GABA-A receptor; anion channel (assay: Inhibition of [3H]-Ro- 15-1788 binding to GABA-A benzodiazepine receptor in rat brain membrane).
Type: cell membranes

SMILES	IC50 [µM]
O=c1c2cnc3cccc(O)c3c2[nH]n1-c1ccccc1	0.00074
O=c1c2cnc3cc(OCc4ccccc4)ccc3c2[nH]n1-c1ccccc1	> 1
COc1cccc2ncc3c(=O)n(-c4ccccc4)[nH]c3c12	0.00068
O=c1c2cnc3c(OCc4ccccc4)cccc3c2[nH]n1-c1ccccc1	> 1
O=c1c2cnc3ccc(OCc4ccccc4)cc3c2[nH]n1-c1ccccc1	0.0037

Now from value to molecule:

IC50 [µM]	SMILES
0.0523	O=c1c2cnc3ccc(OCc4ccccc4)cc3c2[nH]n1-c1ccc(Cl)cc1
> 1000	O=c1c2cnc3cccc(OCc4ccccc4)c3c2[nH]n1-c1ccccc1
